Results as given in patent US10723723B2, “Substituted bicycle heterocyclic derivatives useful as ROMK channel inhibitors” (BRISTOL-MYERS SQUIBB COMPANY, priority 2016, dated 2020).

Molecular target: hROMK (human Kir1.1) (Homo sapiens (Human), UniProt P48048)
Test: Thallium Flux Assay (FluxOR, CHO T-Rex hROMK stable cell line)
Type: cell-based
Settings: CHO T-Rex hROMK cells, 10-point concentration response curve; read-out: Human ROMK TH Flux IC50

Sequence of hROMK (human Kir1.1) (P48048 whole entry): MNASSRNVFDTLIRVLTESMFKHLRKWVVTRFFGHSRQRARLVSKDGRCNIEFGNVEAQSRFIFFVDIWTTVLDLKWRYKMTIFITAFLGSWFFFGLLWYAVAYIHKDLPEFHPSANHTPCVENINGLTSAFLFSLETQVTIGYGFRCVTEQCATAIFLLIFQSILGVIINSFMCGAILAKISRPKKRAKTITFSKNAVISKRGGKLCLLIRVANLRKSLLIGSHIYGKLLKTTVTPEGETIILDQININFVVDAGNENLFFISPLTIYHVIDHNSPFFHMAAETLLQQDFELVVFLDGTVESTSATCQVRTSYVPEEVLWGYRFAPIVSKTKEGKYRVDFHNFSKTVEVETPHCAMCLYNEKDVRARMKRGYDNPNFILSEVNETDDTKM

With `Cc1c([C@@H](O)CNCc2c[nH]c(-c3ccc4oc(=O)n(C)c4c3)n2)ccc2c1COC2=O` [Example 126, (R)-5-(4-(((2-hydroxy-2-(4-methyl-1-oxo-1,3-dihydroisobenzofuran-5-yl)ethyl)amino)methyl)-1H-imidazol-2-yl)-3-methylbenzo[d]oxazol-2(3H)-one] the IC50 was 580 nM.

For `Cc1c(C(O)CN(C)Cc2ccc(-c3ccc4oc(=O)n(C)c4c3)nc2)ccc2c1COC2=O` (single isomer, unassigned) [Example 1-II, 5-(5-(((2-hydroxy-2-(4-methyl-1-oxo-1,3-dihydroisobenzofuran-5-yl)ethyl)(methyl)amino)methyl)pyridin-2-yl)-3-methylbenzo[d]oxazol-2(3H)-one], the IC50 was 830 nM.

With `Cc1cc(-c2nc(CNC[C@H](O)c3ccc4c(c3C)COC4=O)cn2C)ncc1C#N` [Example 86, (R)-6-(4-(((2-hydroxy-2-(4-methyl-1-oxo-1,3-dihydroisobenzofuran-5-yl)ethyl)amino)methyl)-1-methyl-1H-imidazol-2-yl)-4-methylnicotinonitrile] the IC50 was 430 nM.

`Cc1c([C@@H](O)CNCc2cnn(-c3cccc(N4CCOC4=O)c3)c2)ccc2c1COC2=O` [Example 158, (R)-3-(3-(4-(((2-hydroxy-2-(4-methyl-1-oxo-1,3-dihydroisobenzofuran-5-yl)ethyl)amino)methyl)-1H-pyrazol-1-yl)phenyl)oxazolidin-2-one] showed an IC50 of 390 nM.

`Cc1cc(-n2cc(CNC[C@H](O)c3ccc4c(c3C)COC4=O)ccc2=O)ncc1C#N` [Example 99, (R)-5-(((2-hydroxy-2-(4-methyl-1-oxo-1,3-dihydroisobenzofuran-5-yl)ethyl)amino)methyl)-4′-methyl-2-oxo-2H-[1,2′-bipyridine]-5′-carbonitrile] gave an IC50 of 140 nM.

`Cc1c([C@@H](O)CNCc2ccc(-c3cnn(C)c3)nc2)ccc2c1COC2=O` [Example 124, (R)-5-(1-hydroxy-2-(((6-(1-methyl-1H-pyrazol-4-yl)pyridin-3-y)methyl)amino)ethyl)-4-methylisobenzofuran-1(3H)-one] was tested, and the IC50 was 260 nM.

With `Cc1cn(-c2ccc(CNC[C@H](O)c3ccc4c(c3C)COC4=O)nn2)cn1` [Example 53, (R)-5-(1-hydroxy-2-(((6-(4-methyl-1H-imidazol-1-yl)pyridazin-3-yl)methyl)amino)ethyl)-4-methylisobenzofuran-1(3H)-one] the IC50 was 320 nM.

With `Cc1nnn(-c2ccc(CNC[C@H](O)c3ccc4c(c3C)COC4=O)cn2)n1` [Example 127, (R)-5-(1-hydroxy-2-(((6-(5-methyl-2H-tetrazol-2-yl)pyridin-3-yl)methyl)amino)ethyl)-4-methylisobenzofuran-1(3H)-one] the IC50 was 420 nM.

`Cc1cn(-c2cnc(CNC[C@H](O)c3ccc4c(c3C)COC4=O)cn2)cn1` [Example 141, (R)-5-(1-hydroxy-2-(((5-(4-methyl-1H-imidazol-1-yl)pyrazin-2-yl)methyl)amino)ethyl)-4-methylisobenzofuran-1(3H)-one] showed an IC50 of 290 nM.

`Cc1c([C@H](CNCc2cnn(-c3ccc4oc(=O)n(C)c4c3)c2)OC(=O)[C@H](N)C(C)C)ccc2c1COC2=O` [Example 44, (R)-1-(4-methyl-1-oxo-1,3-dihydroisobenzofuran-5-yl)-2-(((1-(3-methyl-2-oxo-2,3-dihydrobenzo[d]oxazol-5-yl)-1H-pyrazol-4-yl)methyl)amino)ethyl D-valinate] gave an IC50 of 140 nM.

For `Cc1cc(-n2cc(CNCC(O)c3ccc4c(c3C)C(C)OC4=O)cn2)ncc1C#N` (single isomer, unassigned) [Example 172-II, 6-(4-(((2-(3,4-dimethyl-1-oxo-1,3-dihydroisobenzofuran-5-yl)-2-hydroxyethyl)amino)meth-yl)-1H-pyrazol-1-yl)-4-methylnicotinonitrile], the IC50 was 1800 nM.

Work on `Cc1c([C@@H](O)CNCc2cncc(-c3ccc4oc(=O)n(C)c4c3)c2)ccc2c1COC2=O` [Example 120, (R)-5-(5-(((2-hydroxy-2-(4-methyl-1-oxo-1,3-dihydroisobenzofuran-5-yl)ethyl)amino)methyl)pyridin-3-yl)-3-methylbenzo[d]oxazol-2(3H)-one] yielded an IC50 of 120 nM.

`Cc1c([C@@H](O)CN(C)Cc2ccc(-c3ccc4oc(=O)n(C)c4c3)cn2)ccc2c1COC2=O` (single isomer, unassigned) [Example 84] gave an IC50 of 82 nM.

For `Cc1c(C(CO)NCCc2cccc(-c3ccc(C#N)c(F)c3)c2)ccc2c1COC2=O` (single isomer, unassigned) [Example 15-II, 3-fluoro-3′-(2-((2-hydroxy-1-(4-methyl-1-oxo-1,3-dihydroisobenzofuran-5-yl)ethyl)amino)ethy)-[1,1′-biphenyl]-4-carbonitrile], the IC50 was 1500 nM.

Molecule `Cc1cc(-n2ncc(C(C)NC[C@H](O)c3ccc4c(c3C)COC4=O)n2)ncc1C#N` (single isomer, unassigned) [Example 59] has an IC50 of 540 nM.

Molecule `Cc1c([C@@H](O)CNCc2cnn(-c3ccc(-c4noc(=O)n4C)cn3)c2)ccc2c1COC2=O` [Example 171, (R)-3-(6-(4-(((2-hydroxy-2-(4-methyl-1-oxo-1,3-dihydroisobenzofuran-5-yl)ethyl)amino)methyl)-1H-pyrazol-1-yl)pyridin-3-yl)-4-methyl-1,2,4-oxadiazol-5(4H)-one] has an IC50 of 1000 nM.

With `Cc1c([C@@H](O)CN(CCCC(F)(F)F)Cc2ccc(-c3ccc4oc(=O)n(C)c4c3)nc2)ccc2c1COC2=O` [Example 163, (R)-5-(5-(((2-hydroxy-2-(4-methyl-1-oxo-1,3-dihydroisobenzofuran-5-yl)ethyl)(4,4,4-trifluorobutyl)amino)meth-yl)pyridin-2-yl)-3-methylbenzo[d]oxazol-2(3H)-one] the IC50 was 260 nM.

Work on `Cc1cc(-n2cc(CNC[C@@H](c3ccc4c(c3C)COC4=O)N(C)C)cn2)ncc1C#N` [Example 174, (R)-6-(4-(((2-(dimethylamino)-2-(4-methyl-1-oxo-1,3-dihydroisobenzofuran-5-yl)ethyl)amino)methyl)-1H-pyrazol-1-yl)-4-methylnicotinonitrile] yielded an IC50 of 11600 nM.

`CN(Cc1ccc(-c2ccc(C#N)c(F)c2)cc1)Cc1ccc2c(c1)COC2=O` [Example 29, 3-fluoro-4′-((methyl((1-oxo-1,3-dihydroisobenzofuran-5-yl)methyl)amino)methyl)-[1,1′-biphenyl]-4-carbonitrile] was tested, and the IC50 was 3300 nM.

Molecule `Cc1c([C@@H](O)CNCc2cnn(-c3cnccn3)c2)ccc2c1COC2=O` [Example 165, (R)-5-(1-hydroxy-2-(((1-(pyrazin-2-yl)-1H-pyrazol-4-yl)methyl)amino)ethyl)-4-methylisobenzofuran-1(3H)-one] has an IC50 of 470 nM.

For `Cc1cc(-n2cc(CNC[C@H](O)c3ccc4c(c3C)COC4=O)c3ncccc32)ncc1C#N` [Example 168, (R)-6-(3-(((2-hydroxy-2-(4-methyl-1-oxo-1,3-dihydroisobenzofuran-5-yl)ethyl)amino)methyl)-1H-pyrrolo[3,2-b]pyridin-1-yl)-4-methylnicotinonitrile], the IC50 was 120 nM.

Work on `Cc1c(C(O)CN(C)Cc2ccc(-n3ccc4cc(C#N)ccc43)cc2)ccc2c1COC2=O` (single isomer, unassigned) [Example 32-I, 1-(4-(((2-hydroxy-2-(4-methyl-1-oxo-1,3-dihydroisobenzofuran-5-yl)ethyl)(methyl)amino)methyl)phenyl)-1H-indole-5-carbonitrile] yielded an IC50 of 530 nM.

With `Cc1c(C(O)CNCc2ccc3c(cnn3-c3ccc(F)cc3)c2)ccc2c1COC2=O` (single isomer, unassigned) [Example 16-I, 5-(2-(((1-(4-fluorophenyl)-1H-indazol-5-yl)methyl)amino)-1-hydroxyethyl)-4-methylisobenzofuran-1(3H)-one] the IC50 was 480 nM.

With `Cc1c(C(O)CN(C)Cc2cnc(-n3ncc4ncccc43)nc2)ccc2c1COC2=O` (single isomer, unassigned) [Example 17-I, 5-(2-(((2-(1H-pyrazolo[4,3-b]pyridin-1-yl)pyrimidin-5-yl)methyl)(mehyl)amino)-1-hydroxyethyl)-4-methylisobenzofuran-1(3H)-one] the IC50 was 1500 nM.

`Cc1cc(-n2cc(CNCC(O)c3ccc4c(c3C)C(C)OC4=O)cn2)ncc1C#N` (single isomer, unassigned) [Example 172-I, 6-(4-(((2-(3,4-dimethyl-1-oxo-1,3-dihydroisobenzofuran-5-yl)-2-hydroxyethyl)amino)meth-yl)-1H-pyrazol-1-yl)-4-methylnicotinonitrile] gave an IC50 of 850 nM.

For `Cc1c([C@@H](O)CNCc2ccc(-c3ccc(=O)n(C)n3)nc2)ccc2c1COC2=O` [Example 122, (R)-6-(5-(((2-hydroxy-2-(4-methyl-1-oxo-1,3-dihydroisobenzofuran-5-yl)ethyl)amino)methyl)pyridin-2-yl)-2-methylpyridazin-3(2H)-one], the IC50 was 170 nM.

`CNC(=O)O[C@@H](CNCc1cnn(-c2cc(C)c(C#N)cn2)c1)c1ccc2c(c1C)COC2=O` [Example 144, (R)-2-(((1-(5-cyano-4-methylpyridin-2-yl)-1H-pyrazol-4-yl)methyl)amino)-1-(4-methyl-1-oxo-1,3-dihydroisobenzofuran-5-yl)ethyl methylcarbamate] was tested, and the IC50 was 140 nM.

`Cc1cc(-n2cc(CNC[C@H](NS(=O)(=O)C3CC3)c3ccc4c(c3C)COC4=O)cn2)ncc1C#N` [Example 62, (R)-N-(2-(((1-(5-cyano-4-methylpyridin-2-yl)-1H-pyrazol-4-yl)methyl)amino)-1-(4-methyl-1-oxo-1,3-dihydroisobenzofuran-5-yl)ethyl)cyclopropanesulfon-amide] showed an IC50 of 390 nM.

Work on `Cc1c([C@@H](O)CNC(C)(C)c2cnn(-c3ccc4oc(=O)n(C)c4c3)c2)ccc2c1COC2=O` [Example 37, (R)-5-(4-(2-((2-hydroxy-2-(4-methyl-1-oxo-1,3-dihydroisobenzofuran-5-yl)ethyl)amino)propan-2-yl)-1H-pyrazol-1-yl)-3-methylbenzo[d]oxazol-2(3H)-one] yielded an IC50 of 930 nM.

`COc1cc(-c2ncc(CNC[C@H](O)c3ccc4c(c3C)COC4=O)s2)ncc1C#N` [Example 129, (R)-6-(5-(((2-hydroxy-2-(4-methyl-1-oxo-1,3-dihydroisobenzofuran-5-yl)ethyl)amino)methyl)thiazol-2-yl)-4-methoxynicotinonitrile] was tested, and the IC50 was 8 nM.

`Cc1c(C(O)CN(C)Cc2cnc(-c3ccc4oc(=O)n(C)c4c3)nc2)ccc2c1COC2=O` (stereo not shown) [Example 9-I] gave an IC50 of 290 nM.
